Measurements taken from patent publication US8669347B2, “Truncated variant of the mammalian target for rapamycin (MTOR) protein” (UCL Business PLC, priority 2007, dated 2014).

System: Hek293 stable cell lines
Experiment: Cell proliferation assay (Resazurin based) of Hek293 stable cell lines
Set-up: species or system human
Conditions: overexpressing stable lines grown 7 days, six independent studies
Protocol: Hek293 stable cell lines, over-expressing mTORβ wt, mTORα wt or EGFP were seeded into a 96 well plate at various densities (250, 500, 1000 and 2000 cells per well) and grown under standard conditions for 7 days. Cell numbers were than measured in each well by a Resosurin based assay. Normalized growth curves for each cell line were calculated using data from six independent experiments (A). Western blot analysis of total cell lysates of stable cell lines with antibodies to c-myc and its transcription targets (B). The level of proteins was densitometrically measured, actin normalized and folds were calculated against EGFP expressing stable cell line (C).
HEK293 stable cell lines, overexpressing mTORβ wt, mTORβ kinase-dead or EGFP were seeded into 96 well plate at various densities (1000, 2000, 4000 and 8000 cells per well) and grown under standard conditions for 5 days. Cell numbers were then measured in each well by Resazurin based assay. Normalized growth curves for each cell line were calculated using data from six independent experiments (A). Western blot analysis of total cell lysates of stable cell lines with antibodies to c-myc and its transcription targets. The level of proteins was densitometrically measured, actin normalized and folds were calculated against EGFP expressing stable cell line (B). […]

mTORα wt: full-length mammalian target for rapamycin protein, approximately 2549 amino acids (SEQ ID NO: 4)
proliferation compared to control (EGFP) cells: no difference in proliferation
